{"source": "patent US20140113904A1", "about": "“TREATMENT OF CANCER WITH TOR KINASE INHIBITORS” (SIGNAL PHARMACEUTICALS, LLC, priority 2012, published 2014)", "key": {"S6RP(S235/S236)": {"system": "S6RP(S235/S236)", "assay": "Phospho-S6RP(S235/S236) in PC3 cell lysates, MSD", "assay_type": "cell-based, human", "details": "PC3, 1 hour exposure; read-out: p-S6RP(S235/S236) IC50", "from_the_text": "(§1) The direct substrate for TORC1 was 4E-BP 1(T46) and indirect downstream substrate was S6RP(S235/S236). The direct substrate for TORC2 was Akt(S473) and indirect downstream substrates measured were GSK3β(S9) and PRAS40(T246). Additionally, the phosphorylation status of Akt(T308), a phosphorylation site for PDK1 was monitored.\n(§2) MSD® biomarker detection assays provide a rapid and convenient method for measuring the total and phosphorylated levels of protein targets within a single small volume sample. These assays are available in both single-plex and multiplex formats. In a single-plex assay, an antibody for a specific protein target is coated on one electrode (or spot) per well. […] MSD Read Buffer that provides the appropriate chemical environment for ECL is added and the plate is read using an MSD SECTOR™ Imager. […] The instrument measures intensity of the emitted light to afford a quantitative measure of the amount of phosphorylated Akt or S6RP present in the sample. […]\n(§3) The assay plate was incubated with 150 μL of MSD Blocker A Solution for 1 hour with shaking at room temperature. […] Then 150 μL of 1×MSD Read Buffer T was added to each well. The plate was read on the SECTOR Imager plate reader. The Excel data was transferred to Activity Base and IC50 values were calculated.\n(§4) All data was analyzed using XLfit from IDBS. […]"}, "PC3 tumors": {"system": "PC3 tumors", "assay": "Antitumor activity of Compound 1 in PC3 human prostate cancer xenograft model", "assay_type": "in vivo, SCID mice", "details": "for tumor volume reduction compared with vehicle control: Day 31; for tumor volume reduction compared to vehicle control / tumor inhibition compared to vehicle control: day 31", "method": "The BID dose groups were dosed with a 10-hour separation between the morning and evening doses. […] At the end of each study, plasma and/or tumor samples were collected.\nPC3 cell line was obtained from American Tissue Culture Collection (ATCC) (Gaithersberg, Md.) and grown in growth medium containing Ham's F12K medium with 2 mM L-glutamine adjusted to contain 1.5 g/L sodium bicarbonate and 10% of fetal bovine serum. The cells were detached from tissue culture flasks using trypsin-EDTA. After centrifugation, the cell pellets were suspended in phosphate buffered saline (PBS) and counted using a hemocytometer.\nMice were anesthetized with inhaled isoflurane and then inoculated with PC3 tumor cells subcutaneously on the right hind leg with 0.1 mL of single cell suspensions in Matrigel using a sterile 1 mL syringe fitted with a 26 gauge needle. Following inoculation, the mice were returned to microisolator cages.\nFollowing inoculation, the tumors were allowed to grow to about 100 mm^3 or 500 mm^3 prior to randomization. For efficacy studies, animals with tumors of approximately 100 mm^3 were used. The typical number of days required for tumors to reach 100 mm^3 was 9 to 11 days. The tumor of each animal was measured and animals with tumors ranging between 100 and 200 mm^3 were included in the study. For tolerability and regression studies, animals with tumors of approximately 500 mm^3 (range 300-500 mm^3) were used. The typical number of days required for tumors to reach 500 mm^3 was 20 to 22 days. The animals were then distributed randomly into various cages and the cages were randomly assigned to vehicle, positive control or test article groups. All of the mice were tagged with metal ear tags on the right ear. A typical efficacy study group consisted of 8 to 10 animals. Tolerability study group consisted of 4-6 animals.\nThe formulations were homogenized using a Teflon™ pestle and mortar (Potter-Elvehjem tissue grinder). Between the doses, the formulated compound was stored under constant stirring using a magnetic stirrer at 4° C. in the dark. The test article and vehicle were administered by oral gavage. […] Sterile syringes and gavage needles were used for compound administration. All the procedures including injections were done in biosafety cabinets sprayed with 70% ethanol prior to use.\nTumor volumes were determined prior to the initiation of treatment and were considered as the starting volumes. Thereafter, tumors were measured twice a week for the duration of the study. The long and short axes of each tumor were measured using a digital caliper in millimeters. The tumor volumes were calculated using the formula: width^2× length/2. The tumor volumes were expressed in cubic millimeters (mm^3)."}, "Akt(T308)": {"system": "Akt(T308)", "assay": "Phospho-Akt(T308) in PC3 cell lysates, MSD", "assay_type": "cell-based, human", "details": "PC3, 1 hour exposure; read-out: p-Akt(T308) IC50", "from_the_text": "as §1, §2, §3, §4"}, "CD31": {"system": "CD31", "assay": "CD31 immunohistochemistry in PC3 tumors (Compound 2)", "assay_type": "in vivo, SCID mice", "details": "5 mg/kg oral QD for 6 days, 2 hours after last dose"}}}
{"smiles": "CO[C@H]1CC[C@H](N2C(=O)CNc3ncc(-c4ccc(C(C)(C)O)nc4)nc32)CC1", "note": "[Compound 1, 7-(6-(2-hydroxypropan-2-yl)pyridin-3-yl)-1-((1r,4r)-4-methoxycyclohexyl)-3,4-dihydropyrazino-[2,3-b]pyrazin-2(1H)-one]", "values": [{"measurement": "IC50", "setting": "S6RP(S235/S236)", "value": 20, "unit": "nM"}, {"measurement": "tumor volume reduction compared with vehicle control", "setting": "PC3 tumors; 5 mg/kg BID", "value": 64.9, "unit": "%"}, {"measurement": "tumor volume reduction compared with vehicle control", "setting": "PC3 tumors; 10 mg/kg BID", "value": 79.9, "unit": "%"}, {"measurement": "tumor volume reduction compared to vehicle control", "setting": "PC3 tumors; 10 mg/kg QD oral", "value": 46.1, "unit": "%"}, {"measurement": "average tumor volume", "setting": "PC3 tumors; 10 mg/kg QD, Day 31 (vehicle 712)", "value": 383, "unit": "mm^3"}, {"measurement": "tumor inhibition compared to vehicle control", "setting": "PC3 tumors; 25 mg/kg Q2D", "value": 72, "unit": "%"}, {"measurement": "tumor inhibition compared to vehicle control", "setting": "PC3 tumors; 25 mg/kg Q3D", "value": 61, "unit": "%"}, {"measurement": "average tumor volume", "setting": "PC3 tumors; 25 mg/kg QD group, Day 52 after 3 weeks without dosing", "value": "about 427 mm^3"}, {"measurement": "tumor response", "setting": "PC3 tumors; 25 mg/kg QD oral, 3 weeks", "value": "Tumor regression"}, {"measurement": "tumor volume reduction compared to vehicle control", "setting": "PC3 tumors; 25 mg/kg QD oral", "value": 86.7, "unit": "%"}, {"measurement": "average tumor volume", "setting": "PC3 tumors; 25 mg/kg QD, Day 31 (158 on Day 11; vehicle 712)", "value": 123, "unit": "mm^3"}, {"measurement": "tumor volume at the end of the second cycle", "setting": "PC3 tumors; 25 mg/kg QD, second 3-week cycle", "value": "approximately 729 mm^3"}, {"measurement": "tumor inhibition compared to vehicle control", "setting": "PC3 tumors; 50 mg/kg Q3D", "value": 82, "unit": "%"}, {"measurement": "tumor inhibition compared to vehicle control", "setting": "PC3 tumors; 50 mg/kg Q5D", "value": 61, "unit": "%"}, {"measurement": "tumor inhibition compared to vehicle control", "setting": "PC3 tumors; 50 mg/kg Q7D", "value": 49, "unit": "%"}, {"measurement": "lowest (minimal) efficacious dose", "setting": "PC3 tumors; BID, determined by 65% tumor volume inhibition", "value": 5, "unit": "mg/kg"}, {"measurement": "tumor response", "setting": "PC3 tumors; regression study, 1 mg/kg BID, vs vehicle", "value": "significantly (p<0.01) slowed tumor growth"}, {"measurement": "tumor response", "setting": "PC3 tumors; regression study, 5 mg/kg BID", "value": "stasis of tumor growth"}, {"measurement": "tumor response", "setting": "PC3 tumors; regression study, 10 mg/kg BID", "value": "regression of PC3 tumors"}, {"measurement": "average tumor volume", "setting": "PC3 tumors; regression study, 10 mg/kg BID, day 43 (482.2±12.6 on day 20)", "value": "343.6±32.6", "unit": "mm^3"}, {"measurement": "tumor response", "setting": "PC3 tumors; regression study, 25 mg/kg Q2D", "value": "regression of tumors initially during the first 2 weeks of dosing"}, {"measurement": "tumor volume", "setting": "PC3 tumors; regression study, 25 mg/kg Q2D, day 43 (475.1±19.6 on day 20)", "value": "549.4±45.7", "unit": "mm^3"}, {"measurement": "IC50", "setting": "Akt(T308)", "value": 130, "unit": "nM"}]}
{"smiles": "CCN1C(=O)CNc2ncc(-c3ccc(-c4nc[nH]n4)nc3C)nc21", "note": "[Compound 2, 1-ethyl-7-(2-methyl-6-(1H-1,2,4-triazol-3-yl)pyridin-3-yl)-3,4-dihydropyrazino[2,3-b]pyrazin-2(1H)-one]", "values": [{"measurement": "reduction of CD31 positive blood vessels vs vehicle", "setting": "CD31", "value": 50, "unit": "%"}]}
